Values of other authors in US8828415B2, “Microcapsules with acetylene carbamide-polyurea polymers and formulations thereof for controlled release” (priority 2006, dated 2014).

Assays:
[1] = for cancer (Ames test): MSDS of Sigma-Aldrich and CYTEC
mice = settings: for 4 h

Row | SMILES | cancer (Ames test) [1] | cancer: CMR category ([1]; MSDS) | cancer: IARC classification ([1]; MSDS) | acute inhalation toxicity (LC50) (mice) | pulmonary sensitization in guinea pigs (guinea pigs) | affects respiratory system in humans at long term (3 y) (humans)
1 | Cc1ccc(N=C=O)cc1N=C=O [TDI, 2,4-toluenediisocyanate] | carcinogenic (Ames test) | CMR Cat. Carcinogen 3 | IARC carrcinogen 2B | 10 ppm for 4 h - mice | Yes | Yes
2 | CC(C)(N=C=O)c1cccc(C(C)(C)N=C=O)c1 [TMXDI, alpha-, alpha-, alpha-, alpha-tetramethyl xylylene diisocyanate] | not carcinogenic | – | – | 27 ppm for 4 h - | no | no
